Key:
MDCK = MDCK epithelial cell line (Sahai et al. 2002); cited from earlier work
E-cadherin = E-cadherin surface expression on LEPs and MEPs by flow cytometry; type: cell-based, human; settings: Y27632 10−5 M or ML-7 3×10−6 M in HMEC medium for 6 h
Experimental: E-cadherin expression on LEP and MEP was measured by addition of anti-E-cadherin-A647 (clone 67A4; Biolegend) to the above mixture at 1:50.
(§1) To determine effects of inhibitors, Y27632 at 10−5 M (Calbiochem) or ML-7 at 3×10−6 M (Calbiochem) was added to HMEC medium for 6 h at 37° C. (5% CO2) before trypsinization and subsequent measurement of E-cadherin by FACS. To measure the ability of recEcad to bind to HMEC in presence of inhibitors, cells were suspended in their medium in Falcon tubes (to prevent adhesion to a culture surface) in the presence of Y27632 at 10−5M (Calbiochem), ML-7 at 3×10−6M (Calbiochem), or anti-E-cadherin (100 μg/mL; clone HECD-1; Invitrogen), or in calcium-free medium for 6 h at 37° C. (5% CO2). recEcad conjugated to human IgG Fc region was added at 100 μg/mL for 1 h on ice. HMEC then were washed with medium and incubated with anti-human IgG-A633 (1:500; Invitrogen) in their own medium.

mouse mammary organoids = settings: time-lapse imaging studies; less catastrophic than in the HMEC microwell assay; cited from earlier work
LEPs = experiment: Atomic force microscopy measurement of stiffness (LEPs); type: cell-based, human; settings: 45 cells per condition
Experimental: (§2) Once samples were equilibrated to 25° C., cell deformity was measured, and stiffness was calculated as previously described (Alcaraz J, et al., (2008) Laminin and biomimetic extracellular elasticity enhance functional differentiation in mammary epithelia. EMBO J 27:2829-2838.). The resulting data were plotted using Prism(GraphPad Software) (n=45).

[1] = tested on: HMEC strain 240L (LEPs and MEPs); experiment: Microwell self-organization assay; type: cell-based, human; settings: for self-organization of LEPs and MEPs: actomyosin inhibitors (ML-7 3×10^−6 M, Y27632 10^−5 M) added at the beginning, refreshed every 24 h, over 48 h; for organization measured at 48 h: inhibitor added a single time after 24 h, when organization was already underway; for self-organization at the 24-h time point / differences in LEP:MEP ratios in the core and at the periphery by 48 h: inhibitor added a single time at 0 h; for differences in LEP:MEP ratios in the core and at the periphery by 48 h: P<0.01
Description: Micropatterned substrata were made according to Tan et al. (2004) “Simple approach to micropattern cells on common culture substrates by tuning substrate wettability”. Tissue Eng 10:865-872, hereby incorporated by reference. Polydimethylsiloxane (PDMS) microwell arrays were formed by curing prepolymer with base:cure ratio of 10:1 (Sylguard 184) against a prepatterned master. The arrays of wells were peeled away and were cut into 1-cm^2 pieces that were affixed with a few microliters of uncured PDMS to the bottom of a 24-well plate (Mitek). Plates with microwells were UV oxidized for 7 min (UVO-Cleaner 42; Jelight Co.), blocked with 2 mg/mL BSA (Sigma) for 1 h under vacuum, and rinsed with PBS and M87A. All self-organizing experiments were conducted with HMEC strain 240L. Flow cytometry-sorted HMEC were stained with CM-DiI, SP-DiOC18 (Steinberg M S, (1962) On the mechanism of tissue reconstruction by dissociated cells. I. Population kinetics, differential adhesiveness, and the absence of directed migration. Proc Natl Acad Sci USA 48:1577-1582), or DiIC18(Wei C, et al., (2007) Self-organization and branching morphogenesis of primary salivary epithelial cells. Tissue Eng 13:721-735)-DS (Invitrogen), used at 1:1,000 in PBS for 5 min at 37° C. followed by 15 min at 4° C. Cells were washed extensively with medium after staining Dye-stained HMEC were mixed at a ratio of 1:1 (LEP:MEP) or 1:1 (randomly stained green:red HMEC cultures) and were resuspended in M87A at 1 million cells/mL. […] HMEC were imaged at 0, 24, or 48 h with a spinning disk confocal microscope (Carl Zeiss). Red and green fluorescence channels in images taken at the ˜25-μm z axis positions of 30 wells from each condition at each time point were binarized using the Threshold function, merged into a Z-stack, and then averaged using ImageJ software (National Institutes of Health). Gray-scaled average images corresponding to LEP and MEP were merged into a single image with red or green look-up tables applied to each average image.
Heat maps were generated. Briefly, heat maps were normalized to the highest intensity value and were used to quantify sorting using the expression log2(mean green pixel intensity/mean red pixel intensity). A script was written using MATLAB (Mathworks) to plot differential intensity as a function of the distance from the center and to compute the average plot from θ of 0-360° (Fig S2).

MEPs = experiment: Atomic force microscopy measurement of stiffness (MEPs); type: cell-based, human; settings: 45 cells per condition
Experimental: as §2

HCT116 = HCT116 epithelial cell line (Sahai et al. 2002); cited from earlier work
HMEC cell surfaces = experiment: Recombinant E-cadherin (recEcad) binding to HMEC cell surfaces by flow cytometry; type: cell-based, human; settings: 6 h pretreatment/preincubation of HMEC in suspension; recEcad 100 μg/mL 1 h on ice
Experimental: as §1

| SMILES | breakdown and recycling of mature adherens junctions (MDCK) | lineage-specific differences in E-cadherin expression (E-cadherin) | bilayered organization of mouse mammary organoids (mouse mammary organoids) | LEP stiffness (LEPs) | self-organization of LEPs and MEPs [1] | organization measured at 48 h [1] | self-organization at the 24-h time point [1] | differences in LEP:MEP ratios in the core and at the periphery by 48 h [1] | MEP stiffness (MEPs) | breakdown and recycling of mature adherens junctions (HCT116) | recEcad binding to HMEC surfaces (HMEC cell surfaces) |
| --- | --- | --- | --- | --- | --- | --- | --- | --- | --- | --- | --- |
| C[C@@H](N)[C@H]1CC[C@H](C(=O)Nc2ccncc2)CC1 [Y27632] | unable to break down and recycle | did not change | disrupted the clean bilayered organization | caused softening | prevented self-organization | preserved the self-organized LEP cores | prevented self-organization | differences in LEP:MEP ratios in the core and at the periphery were observed | unaffected | unable to break down and recycle | did not prevent |
| O=S(=O)(c1cccc2c(I)cccc12)N1CCCNCC1 [ML-7] | – | did not change | disrupted the clean bilayered organization | caused softening | prevented self-organization | obliterated organization | prevented self-organization | differences in LEP:MEP ratios in the core and at the periphery were observed | unaffected | – | did not prevent |
